In data set [1] the test system is southern pine beetle. The data set can be described thus: Laboratory assay for effectiveness of repellent (circle of compound on cardboard, beetle response). The following applies: for BEHAVIORAL RATING: numerical score for degree of behavioral response; for repelled behavioral response (in words): laboratory tests. Set-up: BEHAVIORAL RATING: scale not given here. The data set is classed as in vivo. How it is done:
A) Laboratory Assay for Effectiveness of Repellent
The candidate compound was applied as a circle (17 cm in diameter by 5 mm in width) to a 28 by 21.5 cm piece of uncoated cardboard using a camel-hair brush. Three minutes after application, a beetle was placed in the center of the circle. In each trial, at least 20 healthy-appearing beetles were tested. Testing was conducted at room temperature (22°-25° C.) with light supplied from an adjoining room. The beetles were briefly refrigerated prior to testing to reduce their tendency to fly immediately upon release. An object was used to cast a shadow over the test circle in order to minimize response to light, which could interfere with the interpretation of insect response to an applied substance.

Data set [2] can be described thus: Release rate by gravimetric measurement of pipette bulbs. The data set is classed as physicochemical. The following applies: elution from 4-ml Samco pipette bulb, preliminary studies. How it is done: (§1) Release rates were determined in preliminary studies using simple gravimetric measurement of bulbs to provide elution in mg/day units. Release rates of all analog compounds were equal to or greater than that of 4-allylanisole. Placement of treatments was originally assigned at random and rotated sequentially with each collection. Each array was collected through two full rotations. Whole traps were moved in order to eliminate the possibility of contamination. Collection cups contained a 5.5×2 cm piece of pest strip, containing as its active ingredient the insecticidal agent 2,2 dichlorovinyldimethylphosphate to kill the captured insects. The numbers of captured southern pine beetle and of predatory clerid beetle Thanasimus dubius, the most important natural enemy of the southern pine beetle, were determined. Data were analyzed using ANOVA (SAS PROC GLM) to determine if the mean numbers of southern pine beetles or clerids were affected by treatment. The positions of the traps were also taken into consideration in the model.

Data set [3] relates to southern pine beetle. Put plainly: Field assay with frontalure-baited Lindgren funnel traps. The following applies: for rank (relative repellency, 1 = best repellent): frontalure plus test compound; for mean rank: mean over the trials in which the compound was tested; for rank in reduction of trap captures: the two field trials in which they were tested, relative to 4-allylanisole. Format: in vivo. On the procedure:
B) Field Assays of the Effectiveness of Repellents
Field assays were carried out with selected 4-allylanisole analogs, including 4-allylanisole, anisole, 4-isopropylanisole, allylbenzene, 4-methylstyrene, toluene, and trans-anethole. The protocol for these assays is similar to that previously described (Hayes, et al., 1994a; Hayes and Strom, 1994c, both incorporated by reference as if fully set forth herein). Populations of local southern pine beetle were tested for response to these compounds using baited Lindgren funnel (16-funnel) traps. Traps were placed in or near active infestations of southern pine beetle over the course of the summer of 1997. Treatment baits consisted of the attractant frontalure and frontalure plus the test compound released from a 4-ml Samco pipette bulb. Hayes, et al., (J. Vozzo [ed.] Research and applications of chemical sciences in forestry: Proceeding of the 4th Southern Station Chemical Sciences Meeting, GTR-SO-104:69-80, 1994). Frontalure is a combination of frontalin, which is an aggregation pheromone of the southern pine beetle, and a-pinene, a synergistic host oleoresin compound. In most cases, each trap array consisted of a total of six traps: one frontalure-only treatment; one frontalure plus 4-allylanisole treatment, and four traps containing treatments of frontalure plus a 4-allylanisole analog. In one instance a 12-trap array was employed, the array having two traps per treatment.
as §1

Setting [4] is: 30-second exposure, 3 min after application, at least 20 beetles per trial, 22-25 C.
Where [5] appears, read: compounds marked * : originally tested with sample size of 45-53 beetles, published in Hayes et al. 1994.

Consider 33 compounds from patent US20020061325A1, “Container for 4-allylanisole and analog scolytid pesticides” (priority 1993, published 2002).

Where only a bound is given, the exact number is not on record here.

On to `CCOc1ccccc1OC` [2-ethoxyanisole], for which the “% REPELLED” value in the data set with southern pine beetle [1] (setting [4]) is recorded as 40%. Also, in the data set on southern pine beetle [1] (30-second exposure), the “BEHAVIORAL RATING” value came to 2.
On the same counts, the results for `CCc1ccccc1O` [2-ethylphenol] are 50% and 2.
With `COCC(=O)c1ccccc1` [2-methoxyacetophenone], the “% REPELLED” value in the data set on southern pine beetle [1] (setting [4]) came to 8%. Besides, in the data set with southern pine beetle [1] (30-second exposure), the “BEHAVIORAL RATING” value amounted to 2.
On to `COc1ccccc1CO` [2-methoxybenzyl alcohol], for which the “% REPELLED” value in the data set on southern pine beetle [1] (setting [4]) worked out at 0%. Also, the “BEHAVIORAL RATING” value with southern pine beetle [1] (30-second exposure) stood at 1.
Consider `COc1ccccc1C` [2-methylanisole], for which the “% REPELLED” value in the data set with southern pine beetle [1] (setting [4]) is on record as 35%. The “BEHAVIORAL RATING” value in the data set on southern pine beetle [1] (30-second exposure) stood at 1.
On the same counts, the results for `CCCc1ccccc1OC` [2-propylanisole] are 8% and 2.
Consider `CCCc1ccccc1O` [2-propylphenol], for which the “BEHAVIORAL RATING” value in the data set on southern pine beetle [1] (30-second exposure) came out at 2.
For the compound `COc1cccc(C(C)=O)c1` [3-methoxyacetophenone], in the data set on southern pine beetle [1] (setting [4]), the “% REPELLED” value turned out to be 8%. Besides, in the data set with southern pine beetle [1] (30-second exposure), the “BEHAVIORAL RATING” value is on record as 2.
For the compound `COc1cccc(CO)c1` [3-methoxybenzyl alcohol], the “% REPELLED” value in the data set with southern pine beetle [1] (setting [4]) was found to be 0%. For the same compound, the “BEHAVIORAL RATING” value with southern pine beetle [1] (30-second exposure) worked out at 1.
`C=CCc1ccc(OC)cc1` [4-allylanisole] came in with a release rate in data set [2] of 15.6 mg/day. The “rank (relative repellency, 1 = best repellent)” value with southern pine beetle [3] (TRIAL 1), in the data set with southern pine beetle [3] (TRIAL 2), in the data set with southern pine beetle [3] (TRIAL 3), in the data set with southern pine beetle [3] (TRIAL 4), in the data set on southern pine beetle [3] (TRIAL 5) and in the data set on southern pine beetle [3] (TRIAL 6) was 1 each time. In the data set with southern pine beetle [3] (all trials), the “beetles captured relative to other treatments” value is given as “fewest”. The mean rank in the data set on southern pine beetle [3] was 1.0.
In data set [2], `COc1ccc(C(C)C)cc1` [4-isopropylanisole] returned a release rate of 16.45 mg/day. Further, the “rank (relative repellency, 1 = best repellent)” value in the data set on southern pine beetle [3] (TRIAL 1) came out at 4; in the data set with southern pine beetle [3] (TRIAL 2), 2; with southern pine beetle [3] (TRIAL 3), 2; with southern pine beetle [3] (TRIAL 4), 5; in the data set with southern pine beetle [3] (TRIAL 5) it was 3; with southern pine beetle [3] (TRIAL 6) it was 2. Also, the mean rank in the data set on southern pine beetle [3] came out at 3.5. Besides, the “% REPELLED” value with southern pine beetle [1] (setting [5]) is recorded as >90%.
As for `COc1ccc(C(C)=O)cc1` [4-methoxyacetophenone], in the data set on southern pine beetle [1] (setting [4]), the “% REPELLED” value was found to be 96%. In addition, the “BEHAVIORAL RATING” value in the data set with southern pine beetle [1] (30-second exposure) is recorded as 3.
Take `COc1ccc(C=CC#N)cc1` [4-methoxycinnamonitrile]: the “% REPELLED” value in the data set on southern pine beetle [1] (setting [5]) was <20%.
Turning to `COc1ccc(CC#N)cc1` [4-methoxypheylacetonitrile], the “% REPELLED” value with southern pine beetle [1] (setting [5]) is <30%.
Turning to `COc1ccc(C)cc1` [4-methylanisole], in the data set on southern pine beetle [1] (setting [4]), the “% REPELLED” value was 45%. Besides, the “BEHAVIORAL RATING” value in the data set with southern pine beetle [1] (30-second exposure) was found to be 2.
Regarding `C=Cc1ccc(C)cc1` [4-methylstyrene], the release rate in data set [2] is listed as 674.75 mg/day. For the same compound, the “rank (relative repellency, 1 = best repellent)” value with southern pine beetle [3] (TRIAL 3) is 2. In the data set with southern pine beetle [3] (TRIAL 4), the “rank (relative repellency, 1 = best repellent)” value turned out to be 3. For the same compound, in the data set on southern pine beetle [3], the mean rank was 2.5; the “rank in reduction of trap captures” value is “second and third”. Moreover, the “repelled behavioral response (in words)” value in the data set on southern pine beetle [1] was “modest repellent response”. The “BEHAVIORAL RATING” value with southern pine beetle [1] (30-second exposure) is 2.
Turning to `COc1ccc(C(C)(C)C)cc1` [4-tert-butylanisole], the “% REPELLED” value in the data set with southern pine beetle [1] (setting [4]) is listed as 0%. Besides, the “BEHAVIORAL RATING” value with southern pine beetle [1] (30-second exposure) came to 1.
Turning to `C=Cc1ccc(OC)cc1` [4-vinylanisole], the “% REPELLED” value with southern pine beetle [1] (setting [4]) stood at 24%. In addition, the “BEHAVIORAL RATING” value in the data set with southern pine beetle [1] (30-second exposure) is 2.
`C=CCc1ccccc1` [allylbenzene]: the release rate in data set [2] amounted to 128.2 mg/day. Further, the “rank (relative repellency, 1 = best repellent)” value was 5 in the data set with southern pine beetle [3] (TRIAL 1), 5 in the data set with southern pine beetle [3] (TRIAL 2), 2 with southern pine beetle [3] (TRIAL 5) and 4 with southern pine beetle [3] (TRIAL 6). Moreover, in the data set with southern pine beetle [3], the mean rank is 4.0. In addition, in the data set on southern pine beetle [1] (setting [5]), the “% REPELLED” value is reported as >90%.
For `COc1ccccc1` [anisole], the release rate in data set [2] is recorded as 52.2 mg/day. The “rank (relative repellency, 1 = best repellent)” value in the data set with southern pine beetle [3] (TRIAL 1) came out at 3; in the data set on southern pine beetle [3] (TRIAL 2), 4; in the data set with southern pine beetle [3] (TRIAL 3), 4; in the data set on southern pine beetle [3] (TRIAL 4) it was 2; in the data set with southern pine beetle [3] (TRIAL 5), 5; with southern pine beetle [3] (TRIAL 6), 3. The mean rank in the data set on southern pine beetle [3] was 3.5. Moreover, the “% REPELLED” value in the data set on southern pine beetle [1] (setting [5]) was >80%.
With `CCCCc1ccccc1` [butylbenzene], the “% REPELLED” value in the data set on southern pine beetle [1] (setting [4]) worked out at 39%. In addition, in the data set with southern pine beetle [1] (30-second exposure), the “BEHAVIORAL RATING” value is recorded as 2.
Consider `CC(C)c1ccccc1` [cumene], for which, in the data set on southern pine beetle [1] (setting [4]), the “% REPELLED” value was 55%. Moreover, in the data set with southern pine beetle [1] (30-second exposure), the “BEHAVIORAL RATING” value was determined as 3.
Consider `CCc1ccccc1` [ethylbenzene], for which, in the data set on southern pine beetle [1] (setting [4]), the “% REPELLED” value was found to be 72%. The “BEHAVIORAL RATING” value with southern pine beetle [1] (30-second exposure) is recorded as 3.
Take `C=CCc1ccc(O)c(OC)c1` [eugenol]: in the data set with southern pine beetle [1] (setting [5]), the “% REPELLED” value was <40%.
As for `Cc1cccc(C)c1` [m-xylene], the “% REPELLED” value in the data set with southern pine beetle [1] (setting [4]) was 34%. Further, the “BEHAVIORAL RATING” value with southern pine beetle [1] (30-second exposure) worked out at 2.
For the compound `Cc1ccccc1C` [o-xylene], the “% REPELLED” value with southern pine beetle [1] (setting [4]) amounted to 46%. In addition, in the data set with southern pine beetle [1] (30-second exposure), the “BEHAVIORAL RATING” value is 2.
For `COc1ccc(C=O)cc1` [p-anisaldehyde], in the data set with southern pine beetle [1] (setting [4]), the “% REPELLED” value came out at 65%. Moreover, the “BEHAVIORAL RATING” value in the data set on southern pine beetle [1] (30-second exposure) was found to be 3.
With `Cc1ccc(C(C)C)cc1` [p-cymene], the “% REPELLED” value in the data set with southern pine beetle [1] (setting [4]) is given as 28%. Besides, in the data set on southern pine beetle [1] (30-second exposure), the “BEHAVIORAL RATING” value was determined as 2.
Take `Cc1ccc(C)cc1` [p-xylene]: the “% REPELLED” value with southern pine beetle [1] (setting [4]) turned out to be 50%. Also, the “BEHAVIORAL RATING” value in the data set with southern pine beetle [1] (30-second exposure) was determined as 2.
As to `CCOc1ccccc1` [phenetole], the “BEHAVIORAL RATING” value with southern pine beetle [1] (30-second exposure) worked out at 2.
Regarding `CCCc1ccccc1` [propylbenzene], the “% REPELLED” value in the data set on southern pine beetle [1] (setting [4]) was 17%. Further, in the data set on southern pine beetle [1] (30-second exposure), the “BEHAVIORAL RATING” value stood at 1.
In turn, `Cc1ccccc1` [toluene] showed a release rate in data set [2] of 462.6 mg/day. Moreover, the “rank (relative repellency, 1 = best repellent)” value in the data set on southern pine beetle [3] (TRIAL 1) was found to be 2. Besides, the “rank (relative repellency, 1 = best repellent)” value in the data set on southern pine beetle [3] (TRIAL 2) worked out at 3. In the data set on southern pine beetle [3], the mean rank was determined as 2.5; the “rank in reduction of trap captures” value is “second and third”. Also, the “repelled behavioral response (in words)” value in the data set with southern pine beetle [1] is “modest repellent response”. In addition, in the data set with southern pine beetle [1] (30-second exposure), the “BEHAVIORAL RATING” value is listed as 2.
For `C/C=C/c1ccc(OC)cc1` [trans-anethole], the release rate in data set [2] is on record as 44.65 mg/day. The “rank (relative repellency, 1 = best repellent)” value is 3 in the data set with southern pine beetle [3] (TRIAL 3), 4 in the data set on southern pine beetle [3] (TRIAL 4), 4 in the data set with southern pine beetle [3] (TRIAL 5) and 6 with southern pine beetle [3] (TRIAL 6). For the same compound, the mean rank with southern pine beetle [3] worked out at 4.25. In addition, in the data set with southern pine beetle [1] (setting [5]), the “% REPELLED” value is on record as <20%.
